Measured values published in patent US10976318B2, “Method of treating cancer using a caspase-4 inhibitor” (IMMUNEPHARMA S.R.L., priority 2014, dated 2021).
*: point of attachment. CH2Cl = ClC*

Tested on: lung tumor lesion in C57Bl/6 mice treated with NMU
Test: Murine model of lung carcinoma induced by intratracheal NMU; tumor lesion area/total lung area
Type: in vivo, mouse
Details: C57Bl/6 mice exposed to NMU, caspase-1 inhibitor i.p.; *p<0.05, **p<0.01; FIG. 6C
Procedure: Murine Model of Lung Carcinoma.
C57Bl/6 mice (Harlan Laboratories, Italy) and 129Sv mice, and caspase-1 and 11 knockout mice (Charles River Laboratories, Italy) (females of 6-8 weeks) were subjected to intratracheal (i.t.) instillation of a carcinogen, N-nitroso-N-methyl-urea (NMU), having alkylating and mutagenic activities (Damiani et al., 2008). NMU was administered three times every 7 days, according to the following administration schedule and dosage: day 0, 50 μg/mouse; day 8, 10 μg/mouse and day 15, 10 μg/mouse (FIG. 1). In some experiments, an anti-IL-1α antibody (Ab) (2 μg/[…] i.p.; eBioscience, USA), or a caspase-1 inhibitor (Ac-Y-VAD-cmk: 10 ug/mouse i.p., Sigma Aldrich, USA), or an anti-caspase-11 antibody (10 ug/mouse, i.p.; Santa Cruz, USA) were administered to C57Bl/6 mice treated with NMU. The animals were sacrificed at different time points (3-7-30 days from the first NMU administration), according to the scheme shown in FIG. 1. The tumor lesion was expressed as the tumor lesion area/total lung area ratio. […]
The results are expressed as mean±SEM. The differences between the various groups were statistically analyzed using One Way ANOVA analysis and/or Student's t test, as appropriate. […]

| Substance | tumor lesion, effect in words |
| --- | --- |
| Ac-Tyr-Val-Ala-Asp-CHO (Ac-YVAD-aldehyde) [y-VAD-CHO, N. sc-3069] | reduced |
| Ac-Tyr-Val-Ala-Asp-Chloromethylketone (Ac-YVAD-CH2Cl) [Ac-Y-VAD-cmk, N. SML-0429] | reduced |
